13 compounds from patent publication US20240279227A1, “FUSED HETEROCYCLIC DERIVATIVES” (Janssen Sciences Ireland Unlimited Company, priority 2021, published 2024) can be followed below.

A short description of series [1]: Cytotoxicity, ATPlite Luminescence Assay. The class given is cell-based, human. The following applies: human, HepG2 or HepG2.117 cells, 3-days incubation unless marked with *, ATPlite viability. Here is the method: Cytotoxicity of the compounds was tested using HepG2 or HepG2.117 cells, incubated for 3 or 4 days in the presence of compounds. The viability of the cells was assessed using the PERKIN ELMER ATPlite Luminescence Assay System.”
(In ATP-based viability assays light output follows the ATP content of the culture.)

For series [2], the system named is HBV. Briefly: Anti-HBV activity in HepG2.117 cell line (intracellular HBV DNA, real-time PCR). The class given is cell-based, hepatitis B virus. To be noted: HepG2.117 cells, HBV replication induced, 3 days of treatment, intracellular HBV DNA by real-time PCR. On the procedure:
The anti HBV activity was measured using the HepG2.117 cell line, a stable, inducibly HBV producing cell line, which replicates HBV in the absence of doxycycline (Tet-off system). The HepG2 cell line is available from ATCCR under number HB-8065. Transfection of the HepG2 cell line can be as described in Sun and Nassal 2006 Journal of Hepatology 45 (2006) 636-645 “Stable HepG2-and Huh7-based human hepatoma cell lines for efficient regulated expression of infectious hepatitis B virus”.
For the antiviral assay, HBV replication was induced, followed by a treatment with serially diluted compound in 96-well plates. After 3 days of treatment, the antiviral activity was determined by quantification of intracellular HBV DNA using real-time PCR and an HBV specific primer set and probe.
A general note: Real-time PCR tracks product formation cycle by cycle.

The nature of series [3]: Human liver microsome stability. Type of series: in vitro ADME. The following applies: 1 μM compound, NADPH 1 mM, pH 7.4, 37° C., 0-60 min; for half-life at 1 μM: human, pooled human liver microsomes, pH 7.4, pooled human liver microsomes 0.5 mg/mL, read-out: HLM Metabolism t1/2; for HLM Metabolism t1/2: pooled human liver microsomes 0.5 mg/mL. Here is the method:
Pooled human liver microsomes (0.5 mg/mL) was pre-incubated with 1 μM test compounds or control compounds (verapamil, warfarin and cerivastatin) in 0.1 M phosphate buffer pH 7.4 containing 1 mM MgCl2 at 37° C. The final concentration of DMSO and acetonitrile are 0.05% and 0.2%, respectively. All incubations are performed singularly for each compound. NADPH was added to initiate the reaction with the final concentration of 1 mM and the final incubation volume of 400 μL.
At 6 time points (0, 5, 10, 20, 40 and 60 min) reactions were stopped by the removal of 50 μL of the incubation mixture into plates containing acetonitrile at a of 1:3 (v:v). The plates were centrifuged at 3000 rpm for 10 min at 4° C. to precipitate the protein. Following protein precipitation, the sample supernatants were combined in cassettes of up to 8 compounds. The internal standard was added (1:1 supernatant to internal standard solution) and samples were analyzed using standard LC-MS conditions.
From a plot of ln peak area ratio (compound peak area/internal standard peak area) against time, the gradient of the line is determined. Subsequently, half-life is calculated using the equations below: […]
A general note: Liver microsomes are vesicles of endoplasmic reticulum, rich in cytochrome P450 enzymes.

[4] abbreviates: Hepatitis B virus, HepG2.117, 72 h.

By CC50 is commonly meant the concentration that lowers cell viability or growth by half. The low end stands for harm at low concentration, the high end for better tolerance by the cells. What is called EC50 is the concentration needed to bring the measured effect to its halfway point. In series [1], `CNC(=O)[C@@H]1CN(C(C)c2ccc(C#N)cc2)C(=O)c2c3c(nn21)C[C@@H](C)N(C(=O)c1ccc(Cl)c(Cl)c1)C3` (single isomer, unassigned) [Compound 23A, (3R,7S)-9-((R*)-1-(4-Cyanophenyl)ethyl)-2-(3,4-dichlorobenzoyl)-N,3-dimethyl-10-oxo-1,2,3,4,7,8,9,10-octahydropyrido[4′,3′:3,4]pyrazolo[1,5-a]pyrazine-7-carboxamide] returned a CC50 of more than 50 µM. Further, in series [2], the half-maximal effective concentration (EC50) was found to be 0.06 µM. The half-life at 1 μM in series [3] is more than 3 h.
The compound `CNC(=O)[C@@H]1CN(C(C)c2ccc(OC(F)F)c(F)c2)C(=O)c2c3c(nn21)C[C@@H](C)N(C(=O)c1ccc(Cl)c(Cl)c1)C3` (single isomer, unassigned) [Compound 24A, (3R,7S)-2-(3,4-Dichlorobenzoyl)-9-((R*)-1-(4-(difluoromethoxy)-3-fluorophenyl)ethyl)-N,3-dimethyl-10-oxo-1,2,3,4,7,8,9,10-octahydropyrido[4′,3′:3,4]pyrazolo[1,5-a]pyrazine-7-carboxamide] had a CC50 in series [1] of 20.6 µM. In series [2], this compound displayed an EC50 of 0.054 µM. For the same compound, the half-life at 1 μM in series [3] is more than 3 h.
In turn, `CC(c1ccc(OC(F)F)cc1)N1C[C@@H](C(=O)NC2CC2)n2nc3c(c2C1=O)CN(C(=O)c1ccc(Cl)c(C#N)c1)[C@H](C)C3` (single isomer, unassigned) [Compound 26A, (3R,7S)-2-(4-Chloro-3-cyanobenzoyl)-N-cyclopropyl-9-((R*)-1-(4-(difluoromethoxy)phenyl)ethyl)-3-methyl-10-oxo-1,2,3,4,7,8,9,10-octahydropyrido[4′,3′:3,4]pyrazolo[1,5-a]pyrazine-7-carboxamide] yielded a CC50 in series [1] of 29.7 µM. A half-maximal response in series [2] (EC50) required 0.19 µM. The “HLM Metabolism t1/2” value in series [3] is more than 3 h.
`CNC(=O)[C@@H]1CN(C(C)c2ccc(-c3nnnn3C)cc2)C(=O)c2c3c(nn21)C[C@@H](C)N(C(=O)c1ccc(Cl)c(Cl)c1)C3` (single isomer, unassigned) [Compound 29A, (3R,7S)-2-(3,4-Dichlorobenzoyl)-N,3-dimethyl-9-((R*)-1-(4-(1-methyl-1H-tetrazol-5-yl)phenyl)ethyl)-10-oxo-1,2,3,4,7,8,9,10-octahydropyrido[4′,3′:3,4]pyrazolo[1,5-a]pyrazine-7-carboxamide] had a CC50 in series [1] of more than 50 µM. Moreover, in series [2], the EC50 is 0.82 µM. Besides, the half-life at 1 μM in series [3] was more than 3 h.
With `CNC(=O)[C@@H]1CN(C(C)c2ccc(OC)nc2)C(=O)c2c3c(nn21)C[C@@H](C)N(C(=O)c1ccc(Cl)c(Cl)c1)C3` (single isomer, unassigned) [Compound 31A, (3R,7S)-2-(3,4-Dichlorobenzoyl)-9-((R*)-1-(6-methoxypyridin-3-yl)ethyl)-N,3-dimethyl-10-oxo-1,2,3,4,7,8,9,10-octahydropyrido[4′,3′:3,4]pyrazolo[1,5-a]pyrazine-7-carboxamide], the CC50 in series [1] is more than 50 µM. Further, the concentration for a half-maximal effect (EC50) in series [2] turned out to be 0.066 µM. Also, the half-life at 1 μM in series [3] was more than 3 h.
`CNC(=O)[C@@H]1CN(C(C)c2ccc(C3CC3)nc2)C(=O)c2c3c(nn21)C[C@@H](C)N(C(=O)c1ccc(Cl)c(Cl)c1)C3` (single isomer, unassigned) [Compound 32A, (3R,7S)-9-((R*)-1-(6-Cyclopropylpyridin-3-yl)ethyl)-2-(3,4-dichlorobenzoyl)-N,3-dimethyl-10-oxo-1,2,3,4,7,8,9,10-octahydropyrido[4′,3′:3,4]pyrazolo[1,5-a]pyrazine-7-carboxamide] came in with a 50% cytotoxic concentration (CC50) in series [1] of more than 50 µM. The same compound returned an EC50 in series [2] of 0.055 µM. In series [3], the half-life at 1 μM came to 2.12 h.
In series [1], `CNC(=O)[C@@H]1CN(C(C)c2ccc(NCC(F)(F)F)nc2)C(=O)c2c3c(nn21)C[C@@H](C)N(C(=O)c1ccc(Cl)c(Cl)c1)C3` (single isomer, unassigned) [Compound 33A, (3R,7S)-2-(3,4-Dichlorobenzoyl)-N,3-dimethyl-10-oxo-9-((R*)-1-(6-((2,2,2-trifluoroethyl)amino)pyridin-3-yl)ethyl)-1,2,3,4,7,8,9,10-octahydropyrido[4′,3′:3,4]pyrazolo[1,5-a]pyrazine-7-carboxamide] gave a 50% cytotoxic concentration (CC50) of more than 50 µM. The midpoint of the response in series [2] (setting [4]), the EC50, lay at 0.062 µM. In series [3], the “HLM Metabolism t1/2” value turned out to be 0.798 h.
In the case of `CNC(=O)[C@@H]1CN(C(C)c2ccc(N3CCCC3=O)nc2)C(=O)c2c3c(nn21)C[C@@H](C)N(C(=O)c1ccc(Cl)c(Cl)c1)C3` (single isomer, unassigned) [Compound 34A, (3R,7S)-2-(3,4-Dichlorobenzoyl)-N,3-dimethyl-10-oxo-9-((R*)-1-(6-(2-oxopyrrolidin-1-yl)pyridin-3-yl)ethyl)-1,2,3,4,7,8,9,10-octahydropyrido[4′,3′:3,4]pyrazolo[1,5-a]pyrazine-7-carboxamide], the CC50 in series [1] was more than 50 µM. Besides, in series [2] (setting [4]), a half-maximal response (EC50) required 0.38 µM. The half-life at 1 μM in series [3] worked out at 1.83 h.
In series [1], `CNC(=O)[C@@H]1CN(C(C)c2ccc(-c3c(C)noc3C)nc2)C(=O)c2c3c(nn21)C[C@@H](C)N(C(=O)c1ccc(Cl)c(Cl)c1)C3` (single isomer, unassigned) [Compound 35A, (3R,7S)-2-(3,4-Dichlorobenzoyl)-9-((R*)-1-(6-(3,5-dimethylisoxazol-4-yl)pyridin-3-yl)ethyl)-N,3-dimethyl-10-oxo-1,2,3,4,7,8,9,10-octahydropyrido[4′,3′:3,4]pyrazolo[1,5-a]pyrazine-7-carboxamide] came in with a CC50 of more than 50 µM. This compound showed a concentration giving a half-maximal response (EC50) in series [2] of 0.39 µM. The half-life at 1 μM in series [3] came out at 1.16 h.
The compound `CNC(=O)[C@@H]1CN(C(C)c2ccc(C(F)F)nc2)C(=O)c2c3c(nn21)C[C@@H](C)N(C(=O)c1ccc(Cl)c(Cl)c1)C3` (single isomer, unassigned) [Compound 36A, (3R,7S)-2-(3,4-Dichlorobenzoyl)-9-((R*)-1-(6-(difluoromethyl)pyridin-3-yl)ethyl)-N,3-dimethyl-10-oxo-1,2,3,4,7,8,9,10-octahydropyrido[4′,3′:3,4]pyrazolo[1,5-a]pyrazine-7-carboxamide] came in with a CC50 in series [1] of more than 50 µM. This compound registered a concentration for a half-maximal effect (EC50) in series [2] (setting [4]) of 0.086 µM. For the same compound, in series [3], the half-life at 1 μM was more than 3 h.
In series [1], `CNC(=O)[C@@H]1CN(C(C)c2ccccn2)C(=O)c2c3c(nn21)C[C@@H](C)N(C(=O)c1ccc(Cl)c(Cl)c1)C3` (single isomer, unassigned) [Compound 37A, (3R,7S)-2-(3,4-Dichlorobenzoyl)-N,3-dimethyl-10-oxo-9-((R*)-1-(pyridin-2-yl)ethyl)-1,2,3,4,7,8,9,10-octahydropyrido[4′,3′:3,4]pyrazolo[1,5-a]pyrazine-7-carboxamide] returned a cytotoxic concentration (CC50) of more than 50 µM. Moreover, the EC50 in series [2] (setting [4]) is 0.089 µM. Moreover, the half-life at 1 μM in series [3] is more than 3 h.
Turning to `CNC(=O)[C@@H]1CN(C(C)c2cccc(Cl)n2)C(=O)c2c3c(nn21)C[C@@H](C)N(C(=O)c1ccc(Cl)c(Cl)c1)C3` (single isomer, unassigned) [Compound 38A, (3R,7S)-9-((R*)-1-(6-Chloropyridin-2-yl)ethyl)-2-(3,4-dichlorobenzoyl)-N,3-dimethyl-10-oxo-1,2,3,4,7,8,9,10-octahydropyrido[4′,3′:3,4]pyrazolo[1,5-a]pyrazine-7-carboxamide], the CC50 in series [1] is more than 50 µM. The compound further displayed a concentration for a half-maximal effect (EC50) in series [2] (setting [4]) of 0.068 µM. Moreover, the half-life at 1 μM in series [3] is more than 3 h.
In series [1], `CNC(=O)[C@@H]1CN(C(C)c2ccc(C(C)(C)O)cn2)C(=O)c2c3c(nn21)C[C@@H](C)N(C(=O)c1ccc(Cl)c(Cl)c1)C3` (single isomer, unassigned) [Compound 39A, (3R,7S)-2-(3,4-Dichlorobenzoyl)-9-((R*)-1-(5-(2-hydroxypropan-2-yl)pyridin-2-yl)ethyl)-N,3-dimethyl-10-oxo-1,2,3,4,7,8,9,10-octahydropyrido[4′,3′:3,4]pyrazolo[1,5-a]pyrazine-7-carboxamide] yielded a CC50 of more than 50 µM. For the same compound, the EC50 in series [2] came to 1.68 µM. The half-life at 1 μM in series [3] is more than 3 h.
